The values that follow are results of earlier work, collected in patent US20240237652A1, “Biocidal Composition and Method” (ARXADA, LLC, priority 2021, published 2024).

Data set [1] relates to bacteria, fungi, and yeast.
For data set [2] the following is noted: neutral pH.

Consider `O=c1[nH]sc2ccccc12` [BIT, 1,2-benzisothiazolin-3-one], for which, in data set [1], the “amount required for a reliable and quick biocidal activity” value was no more than 500 ppm.
On to Zinc pyrithione [ZPT], for which the solubility in water in data set [2] is recorded as 8 ppm.
